Measurements as given in paper PMC11076491, “Allosteric regulation by c-di-AMP modulates a complete N-acetylglucosamine signaling cascade in Saccharopolyspora erythraea” (Nature Communications, 2024).

Assays:
[1] = molecular target: T1, ScoDasR (DasR^Sco) (Streptomyces coelicolor, UniProt Q9K492); test: isothermal titration calorimetry; format: binding
T1 construct: full-length, His-tagged, expressed in E. coli BL21(DE3), Ni-NTA purified; GntR family, predominantly dimer
T1 sequence (Q9K492 1-254): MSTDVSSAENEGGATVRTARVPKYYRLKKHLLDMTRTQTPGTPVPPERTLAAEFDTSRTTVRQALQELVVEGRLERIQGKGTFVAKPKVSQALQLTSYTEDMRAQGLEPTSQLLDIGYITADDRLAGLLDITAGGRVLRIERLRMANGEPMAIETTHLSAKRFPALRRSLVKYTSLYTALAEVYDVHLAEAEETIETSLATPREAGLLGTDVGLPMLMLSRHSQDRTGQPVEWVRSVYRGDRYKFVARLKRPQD

[2] = molecular target: T2, DasR (His-DasR) of S. erythraea (Saccharopolyspora erythraea, UniProt A4F723); test: isothermal titration calorimetry; format: binding
T2 construct: gene SACE_0500; full-length, His-tagged, expressed in E. coli BL21(DE3), Ni-NTA purified; predominantly dimer (c-di-AMP promotes dimerization)
T2 sequence (A4F723 1-251): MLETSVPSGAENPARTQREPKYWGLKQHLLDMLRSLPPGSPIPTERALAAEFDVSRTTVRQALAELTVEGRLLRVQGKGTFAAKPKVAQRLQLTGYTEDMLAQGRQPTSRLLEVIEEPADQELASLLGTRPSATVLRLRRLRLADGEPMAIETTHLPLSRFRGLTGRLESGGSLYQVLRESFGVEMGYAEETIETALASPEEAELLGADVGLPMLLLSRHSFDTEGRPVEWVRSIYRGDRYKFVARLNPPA

[3] = test system: DasR (Saccharopolyspora erythraea); test: BLI; details: EMSA: 10 mM Tris-HCl pH 8.0, 25 mM MgCl2, 50 mM NaCl, 1 mM DTT, 1 mM EDTA, 0.01% NP-40, 50 ug/mL poly(dIdC), 10% glycerol, 18 C, 30 min, BLI: 10 mM HEPES pH …

Compound	Kd [1] [µM]	Kd [2] [µM]	Kd ([3]; 100 uM c-di-AMP) [µM]	Kd ([3]; no c-di-AMP) [µM]
Nc1ncnc2c1ncn2[C@@H]1O[C@@H]2COP(=O)(O)O[C@H]3[C@@H](O)[C@H](n4cnc5c(N)ncnc54)O[C@@H]3COP(=O)(O)O[C@H]2[C@H]1O [c-di-AMP]	23	26.8	–	–
nagA promoter	–	–	0.44	19
